Data: patent publication US20100189688A1, “Dose forms comprising VX-950 and their dosage regimen” (priority 2007, published 2010)
Values after ≈ are worked out from the molar mass of the structure shown. Values joined by “and” are separate entries in the source; they are usually repeats but may differ in a detail not shown here. Equal entries are not always repeated. Marks after values point to notes of the source that are not given here.

How the values were obtained:
HCV = details: monotherapy, fraction of cases; cited from earlier work
infectious virus = assay: Infectious virus assay; format: cell-based
[1] = Predicted human liver exposure relative to replicon assay IC50/IC90; details: in the dose range studied
HCV genotype 1 = assay: 14-day multiple-dose study in Hepatitis C positive subjects: plasma HCV RNA (Example 5); format: in vivo, human; details: for mean HCV RNA drop: 750 mg q8h
Description: Detection of HCV RNA can be done, e.g., by using the Roche COBAS TaqMan HCV/HPS assay, available from Roche molecular Diagnostics. Subjects (or patients) receiving 750 mg of VX-950 every eight hours for 14 days achieved a median reduction in HCV-RNA of greater than 4 log10 (i.e., 10,000-fold decrease) at the end of the treatment. […] See Example 5 and FIGS. 3-5.
(§1) All other 34 subjects completed the study.
The HCV positive subjects were tested post-treatment to monitor HCV RNA levels' return to baseline.

[2] = system: ALT (alanine aminotransferase); assay: 14-day multiple-dose study: serum ALT / AST levels; format: in vivo, human
Description: The serum alanine aminotransferase (ALT) level can be measured using commercially available methods. Mean ALT levels, elevated at baseline, decreased during dosing in all groups (FIG. 6). Mean ALT levels increased, returned toward baseline, in all dose groups during follow up.

[3] = Multiple-dose study (Example 5): tolerability and VX-950 plasma trough levels; format: in vivo, human
Description: as §1
The assay for determined VX-950 concentration in human plasma was performed by methods well known in the art. See, e.g., Wasley, A. et al., Semin. Liver Dis., 20:1-16, 2000; Alter, H. J. et al., Semin. Liver Dis., 20: 17-35, 2000; Brown, R. S. Jr. et al., Liver Transpl., 9: S10-S13, 2003; DeFrancesco, R. et al., Nature, 436(7053): 953-960, 2005; Bowen, D. G. et al., J. Hepatol., 42: 408-417, 2005; Hoofnagle, J. H., Hepatology, 36: S21-S29, 2002, Brown, R. S. Jr. et al., Nature, 436 (7053): 973-978, 2005; and Chisari, F. V., Nature, 436(7053): 930-932, 2005.
Sample Preparation: 100 μL of plasma and 100 μL of internal standard working solution (or acetonitrile for blank samples) were added to an extraction tube. After vortex mixing for 30 seconds, 500 μL of toluene was added and extraction was performed by vortex mixing for 30 seconds. After centrifugation at 3000 rpm at 4° C. for 5 minutes, the aqueous layer was frozen in a mixture of acetone and dry ice and the organic layer was transferred to another extraction tube. 50 μL of 2,2-dimethoxypropane was added and the samples were evaporated to dryness under nitrogen at approximately 30° C. The residue was re-dissolved in 300 μL of a mixture of heptane and acetone (90:10, v/v) [or a mixture of heptane and THF (80:20, v/v)] by vortex mixing for 60 seconds. […]

HCV NS3/4A protease = HCV NS3/4A protease (Hepatitis C virus genotype 1a, UniProt P27958); assay: In vitro cleavage of TRIF by HCV NS3 protease; format: biochemical; details: 10 μM VX-950, tNS3 0-4 μM
Description: The 35S methionine labeled coupled in vitro transcription/translation product of TRIF protein (as a substrate) was incubated with increasing concentration of tNS3 protease enzyme ranging from 0-4 μM either in the presence (Circles) or absence (Squares) of 10 μM VX-950, followed by SDS-PAGE and exposure to phosphorimager.

[4] = human, in vivo
Description: (§2) A dose escalation scheme was used that combined dose doubling and modified Fibonacci to be aggressive in the lower dose range and conservative in the higher dose range.
(§3) A pharmacokinetics analysis was performed using the statistical moment approach.

[5] = in vivo
WT-HCV protease-SEAP = details: SCID mice expressing WT-HCV protease-SEAP; cited from earlier work
clinical = details: male, human, in vivo, po
Description: as §2, §3

[6] = system: hepatitis C virus (HCV) replicon; assay: HCV replicon cell assay; details: 48 h
neopterin = assay: 14-day multiple-dose study: serum neopterin (ELISA)
IFN-β promoter activity = assay: IFN-β promoter luciferase activity in Sendai virus stimulated Huh7 cells expressing HCV protease; details: 10 μM VX-950, Huh7 cells, Sendai virus stimulation, 16 hours post-infection
[7] = Single-dose escalation tolerance and pharmacokinetics study in healthy male volunteers (Example 3); details: single doses 25 mg to 1250 mg
Description: as §2, §3

genotype 1 hepatitis C = assay: Phase 1b 14-day study of VX-950, VX-950/Peg-IFN-2a or Peg-IFN-2a followed by Peg-IFN-2a/RBV: HCV RNA and SVR (Example 9); details: for patients who achieved SVR: 14 days of VX-950 (alone or in combination with PEG-IFN) then PEG-IFN with RBV
[8] = of the 8 subjects receiving 750 mg q8h
[9] = at the completion of the 14-day dosing period

Sequence of HCV NS3/4A protease (P27958 1027-1208, other chains not shown): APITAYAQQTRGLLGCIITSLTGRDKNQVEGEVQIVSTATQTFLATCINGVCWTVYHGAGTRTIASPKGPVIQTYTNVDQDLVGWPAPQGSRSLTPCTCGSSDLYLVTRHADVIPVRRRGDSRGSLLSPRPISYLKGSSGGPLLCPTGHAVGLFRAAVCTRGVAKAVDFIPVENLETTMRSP

Q: For interferon alfa, which long term remission (HCV) is on record?
A: ~25%

Q: Which results are given for `CCC[C@H](NC(=O)[C@@H]1[C@H]2CCC[C@H]2CN1C(=O)[C@@H](NC(=O)[C@@H](NC(=O)c1cnccn1)C1CCCCC1)C(C)(C)C)C(=O)C(=O)NC1CC1` [VX-950]?
A: IC50 (infectious virus): 0.196 µg/mL (≈ 0.288 µM); predicted average liver concentration as multiple of replicon assay IC50 [1]: up to 113 fold; predicted average liver concentration as multiple of replicon assay IC90 [1]: up to 57 fold; Maximum change from baseline in HCV RNA (log10 IU/mL): subjects in category >−1 to <0 (HCV genotype 1; 450 mg q8h (n = 10)): 0 n (%); Maximum change from baseline in HCV RNA (log10 IU/mL): subjects in category >−2 to ≦−1 (HCV genotype 1; 450 mg q8h (n = 10)): 0 n (%); Maximum change from baseline in HCV RNA (log10 IU/mL): subjects in category >−3 to ≦−2 (HCV genotype 1; 450 mg q8h (n = 10)): 1 (10.0) n (%); Maximum change from baseline in HCV RNA (log10 IU/mL): subjects in category >−4 to ≦−3 (HCV genotype 1; 450 mg q8h (n = 10)): 7 (70.0) n (%); Maximum change from baseline in HCV RNA (log10 IU/mL): subjects in category >−5 to ≦−4 (HCV genotype 1; 450 mg q8h (n = 10)): 0 n (%); Maximum change from baseline in HCV RNA (log10 IU/mL): subjects in category ≧−5 (HCV genotype 1; 450 mg q8h (n = 10)): 2 (20.0) n (%); median reduction in HCV-RNA (HCV genotype 1; 750 mg every eight hours, end of 14 days): greater than 4 log10; Maximum change from baseline in HCV RNA (log10 IU/mL): subjects in category >−1 to <0 (HCV genotype 1; 750 mg q8h (n = 8)): 0 n (%); Maximum change from baseline in HCV RNA (log10 IU/mL): subjects in category >−2 to ≦−1 (HCV genotype 1; 750 mg q8h (n = 8)): 0 n (%); Maximum change from baseline in HCV RNA (log10 IU/mL): subjects in category >−3 to ≦−2 (HCV genotype 1; 750 mg q8h (n = 8)): 0 n (%); Maximum change from baseline in HCV RNA (log10 IU/mL): subjects in category >−4 to ≦−3 (HCV genotype 1; 750 mg q8h (n = 8)): 3 (37.5) n (%); Maximum change from baseline in HCV RNA (log10 IU/mL): subjects in category >−5 to ≦−4 (HCV genotype 1; 750 mg q8h (n = 8)): 3 (37.5) n (%); Maximum change from baseline in HCV RNA (log10 IU/mL): subjects in category ≧−5 (HCV genotype 1; 750 mg q8h (n = 8)): 2 (25.0) n (%); mean HCV RNA drop (HCV genotype 1; day 3): 3.6 log10; mean HCV RNA drop (HCV genotype 1; day 14): 4.3 log10; Maximum change from baseline in HCV RNA (log10 IU/mL): subjects in category >−1 to <0 (HCV genotype 1; 1250 mg q12h (n = 10)): 0 n (%); Maximum change from baseline in HCV RNA (log10 IU/mL): subjects in category >−2 to ≦−1 (HCV genotype 1; 1250 mg q12h (n = 10)): 0 n (%); Maximum change from baseline in HCV RNA (log10 IU/mL): subjects in category >−3 to ≦−2 (HCV genotype 1; 1250 mg q12h (n = 10)): 1 (10.0) n (%); Maximum change from baseline in HCV RNA (log10 IU/mL): subjects in category >−4 to ≦−3 (HCV genotype 1; 1250 mg q12h (n = 10)): 9 (90.0) n (%); Maximum change from baseline in HCV RNA (log10 IU/mL): subjects in category >−5 to ≦−4 (HCV genotype 1; 1250 mg q12h (n = 10)): 0 n (%); Maximum change from baseline in HCV RNA (log10 IU/mL): subjects in category ≧−5 (HCV genotype 1; 1250 mg q12h (n = 10)): 0 n (%); drop in viral load in every patient (HCV genotype 1; all dose groups, during administration): at least 2 log10; median reduction of HCV-RNA (HCV genotype 1; each of the other two dose groups (450 mg q8h, 1250 mg q12h), end of 14 days): greater than 2 log10; effect on HCV replication in humans (HCV genotype 1; human, in vivo): effective in inhibiting HCV replication; subjects with HCV RNA below the limit of detection (LLD 10 IU/mL) (HCV genotype 1; [8]): 2; subjects with HCV RNA below the limit of quantitation (LLQ 30 IU/mL) (HCV genotype 1; [8]): 4; subjects with a 3 log10 reduction in HCV-RNA (HCV genotype 1; within the first three days of treatment): 26 of the 28; reduction in HCV-RNA achieved by every subject (HCV genotype 1; within the first three days of treatment, all dose groups): greater than 2 log10; median ALT value ([2]; 450 mg q8h, day 12, 5 out of 10 samples missing (range 25-125)): 38 U/I; effect on ALT levels in vivo ([2]; 14 days dosing): decreases; effect on AST (aspartate aminotransferase) levels ([2]; upon administration): decreased; tolerability of multiple doses ([3]; 450 mg, 750 mg or 1250 mg, 5 or 14 days): well tolerated at all dose levels; trough levels of VX-950 in plasma ([3]; about 750 mg three times a day, every 8 hours, compared with other regimens): highest trough levels; effect on in vitro cleavage of TRIF by NS3 protease (HCV NS3/4A protease): inhibits in vitro cleavage of TRIF; oral bioavailability ([4]; po): orally bioavailable; VX-950 eliminated unchanged in the urine ([4]; male): Less than 2%; tolerability [5]: well tolerated; effect on elevated ALT levels in an animal model (WT-HCV protease-SEAP): ameliorates elevated ALT levels; Tmax (clinical): 3 h; IC50 ([6]; read-out: IC50 in the replicon assay): ~0.24 µg/mL (≈ 0.353 µM); IC90 ([6]; read-out: IC90 in the replicon assay): ~0.476 µg/mL (≈ 0.7 µM); mean neopterin level (neopterin; 750 mg q8h, day 14 (baseline 10.48±0.84 nmol/L; ULN 7.7)): 7.32 ± 0.48 nmol/L; effect on neopterin levels in vivo (neopterin; 14 days dosing): decreases; effect on WT HCV protease mediated suppression of IFNβ promoter activation (IFN-β promoter activity): overcomes the WT HCVpro mediated suppression of IFNβ promoter activation; tolerability of single doses [7]: well tolerated at all dose levels; SVR after a 2 week treatment of VX-950 (genotype 1 hepatitis C; 2 week treatment): SVR was achieved in a patient; HCV RNA levels at the last off-study follow-up day (genotype 1 hepatitis C; 12 weeks after the last on-study follow-up, patients who continued with Peg-IFN-2a/RBV): undetectable in all patients; antiviral activity (genotype 1 hepatitis C; 14 days): rapid and profound antiviral activity; patients who achieved SVR (genotype 1 hepatitis C; treated for 24 weeks): 7 of 10; patients who achieved SVR (genotype 1 hepatitis C; treated for 48 weeks): 3 of 5; patients in whom SVR was achieved (genotype 1 hepatitis C; 14 days of VX-950 optionally in combination with Peg-INF, followed by Peg-INF/RBV for an additional 22 or 46 weeks): 10 of 15; decrease of HCV RNA levels, generally (genotype 1 hepatitis C; [9]): at least 2 log10; decrease of HCV RNA levels, in some cases (genotype 1 hepatitis C; [9]): at least 4 log10; patients with undetectable HCV RNA (genotype 1 hepatitis C; at week 12): 5 of 7; patients with undetectable HCV RNA (genotype 1 hepatitis C; at week 24, all patients who received VX-950 (alone or with PEG-IFN)): 15; Undetectable HCV RNA at 24-week off study peg-IFN-2a/RBV treatment (genotype 1 hepatitis C; group sizes N 7 / 8 / 4): 7* N; Undetectable HCV RNA at 12 weeks follow-up after stopping peg-IFN-2a/RBV (genotype 1 hepatitis C; patients who stopped Peg-IFN-2a/RBV at week 24): 2 of 4 and 2/4
